Test [1] concerns the target FASN (Mus musculus, UniProt P19096). The settings on record: in vivo; cited from earlier work.
For test [2], the target named is T1, ENO1 (Homo sapiens, UniProt P06733).
T1 construct: endogenous in cells; host or cells: HepG2 (ATCC HB-8065)
Nature of the test: Global enzyme activity analysis (ATP/ADP probe, LC-MS/MS) in HepG2. Format: cell-based. The note with it: HepG2, Sorafenib 1 μM, 24 hours; relative to control, untreated sample. From the text: (§1) Multikinase inhibitor Sorafenib, a first line chemotherapeutic agent for the advanced HCC patients, was used to probe the role of global kinase activity and protein phosphorylation changes associated with this treatment. The HepG2 (ATCC Ascension No. HB-8065) cell line was selected to model HCC cells and the THLE2 (ATCC Ascension No. CRL-10149) cell line was selected to model normal hepatic cells.
(§2) FIG. 41B illustrates a method for global enzyme (e.g., kinase) enrichment profiling. First, a cell lysate including the targeted enzyme (e.g., kinase) is parepared. The second step is probe binding (e.g., an ATP probe in the case of kinase). Theny the enzyme is digested and brobe-bound fragments are captured. These fragments can be analyzed (e.g., by LC-MS/MS) and the corresponding protein thus identified (e.g., via a database search of the LC-Ms/MS data).
(§3) THERMO SCIENTIFIC© PIERCE® Kinase Enrichment Kits and ACTIVX© probes (instructions available from THERMO SCIENTIFIC© and PIERCE® Biotechnology www.thermoscientific.com/pierce) were used for global enzyme activity analysis. Briefly, these and similar kits enable selective labeling and enrichment of ATPases including kinases, chaperones and metabolic enzymes. ATP and ADP Probes are generally nucleotide derivatives, which covalently modify the active site of enzymes with conserved lysine residues in the nucleotide-binding site. For example, the structure of desthiobiotin-ATP and -ADP consists of a modified biotin attached to the nucleotide by a labile acyl-phosphate bond. Depending on the position of the lysine within the enzyme active site, either desthiobiotin-ATP or -ADP can be preferred for labeling specific ATPases.
(§4) The cells were cultured according to the following protocol. Day 1: HepG2/Hep3B—seed 3.2×10^6 cells in T-75 culture flasks; 7.4×10^6 cells in T-175 culture flasks; or 9.5×10^6 cells in T-225 culture flasks. THLE-2—seed 1.3×10^6 cells in T-75 culture flasks. Day 2: 16-24 hours later, at 50-70% confluence—add treatment. Control: DMSO at final concentration of 0.01%. EGF: 500 ng/mL in 10 mM acetic acid. […]

Test [3] deals with T2, LDHA (Homo sapiens, UniProt P00338).
T2 construct: endogenous in cells; host or cells: HepG2
The description is as above. The format is cell-based. The settings on record: HepG2, Sorafenib 1 μM, 24 hours.
Source text: as §1, §2, §3, §4

The target of test [4] is T3, PGK1 (Homo sapiens, UniProt P00558).
T3 construct: endogenous in cells; host or cells: HepG2 (ATCC HB-8065)
T3 sequence (P00558 1-417): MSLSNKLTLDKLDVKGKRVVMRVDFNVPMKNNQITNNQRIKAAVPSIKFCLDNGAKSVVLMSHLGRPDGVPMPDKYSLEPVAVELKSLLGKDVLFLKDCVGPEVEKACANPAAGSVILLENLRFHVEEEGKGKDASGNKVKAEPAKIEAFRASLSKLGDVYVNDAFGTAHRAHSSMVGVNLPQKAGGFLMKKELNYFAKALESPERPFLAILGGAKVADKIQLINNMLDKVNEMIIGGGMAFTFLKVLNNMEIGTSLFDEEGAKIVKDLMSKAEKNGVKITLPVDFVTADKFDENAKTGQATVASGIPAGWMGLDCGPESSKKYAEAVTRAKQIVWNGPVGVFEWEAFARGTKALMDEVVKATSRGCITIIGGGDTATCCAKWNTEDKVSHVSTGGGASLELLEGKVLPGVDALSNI
The description is as above. The settings on record: HepG2, Sorafenib 1 μM, 24 hours. Format: cell-based.
Source text: as §1, §2, §3, §4

Test [5] has as its system LDHA. The experiment in a line: Protein expression (quantitative proteomics) in HepG2. The format is cell-based, Homo sapiens. The note with it: HepG2, Sorafenib 1 μM, 24 hours. On the procedure: as §1
The cells were cultured according to the following protocol. Day 1: HepG2/Hep3B—seed 3.2×10^6 cells in T-75 culture flasks; 7.4×10^6 cells in T-175 culture flasks; or 9.5×10^6 cells in T-225 culture flasks. THLE-2—seed 1.3×10^6 cells in T-75 culture flasks. Day 2: 16-24 hours later, at 50-70% confluence—add treatment. Control: DMSO at final concentration of 0.01%. EGF: 500 ng/mL in 10 mM acetic acid. Sorafenib: 1 μM at 0.1% volume in DMSO. Day 3: 24 hours after treatment, harvest cells by trypsinization. Wash pellets 2× with PBS before freezing.
Thus, the phospho proteome affords an additional layer of information that can be used for elucidating the complex relationship between the effect of an extracellular signal (e.g., drug molecule) on kinase activity and total cellular protein, thereby facilitating the identification of disease treatment targets, as well as diagnostic/prognostic markers associated with disease.

Entries after “also recorded” stand apart in the source; their conditions may differ.

Chain of FASN (P19096 whole entry): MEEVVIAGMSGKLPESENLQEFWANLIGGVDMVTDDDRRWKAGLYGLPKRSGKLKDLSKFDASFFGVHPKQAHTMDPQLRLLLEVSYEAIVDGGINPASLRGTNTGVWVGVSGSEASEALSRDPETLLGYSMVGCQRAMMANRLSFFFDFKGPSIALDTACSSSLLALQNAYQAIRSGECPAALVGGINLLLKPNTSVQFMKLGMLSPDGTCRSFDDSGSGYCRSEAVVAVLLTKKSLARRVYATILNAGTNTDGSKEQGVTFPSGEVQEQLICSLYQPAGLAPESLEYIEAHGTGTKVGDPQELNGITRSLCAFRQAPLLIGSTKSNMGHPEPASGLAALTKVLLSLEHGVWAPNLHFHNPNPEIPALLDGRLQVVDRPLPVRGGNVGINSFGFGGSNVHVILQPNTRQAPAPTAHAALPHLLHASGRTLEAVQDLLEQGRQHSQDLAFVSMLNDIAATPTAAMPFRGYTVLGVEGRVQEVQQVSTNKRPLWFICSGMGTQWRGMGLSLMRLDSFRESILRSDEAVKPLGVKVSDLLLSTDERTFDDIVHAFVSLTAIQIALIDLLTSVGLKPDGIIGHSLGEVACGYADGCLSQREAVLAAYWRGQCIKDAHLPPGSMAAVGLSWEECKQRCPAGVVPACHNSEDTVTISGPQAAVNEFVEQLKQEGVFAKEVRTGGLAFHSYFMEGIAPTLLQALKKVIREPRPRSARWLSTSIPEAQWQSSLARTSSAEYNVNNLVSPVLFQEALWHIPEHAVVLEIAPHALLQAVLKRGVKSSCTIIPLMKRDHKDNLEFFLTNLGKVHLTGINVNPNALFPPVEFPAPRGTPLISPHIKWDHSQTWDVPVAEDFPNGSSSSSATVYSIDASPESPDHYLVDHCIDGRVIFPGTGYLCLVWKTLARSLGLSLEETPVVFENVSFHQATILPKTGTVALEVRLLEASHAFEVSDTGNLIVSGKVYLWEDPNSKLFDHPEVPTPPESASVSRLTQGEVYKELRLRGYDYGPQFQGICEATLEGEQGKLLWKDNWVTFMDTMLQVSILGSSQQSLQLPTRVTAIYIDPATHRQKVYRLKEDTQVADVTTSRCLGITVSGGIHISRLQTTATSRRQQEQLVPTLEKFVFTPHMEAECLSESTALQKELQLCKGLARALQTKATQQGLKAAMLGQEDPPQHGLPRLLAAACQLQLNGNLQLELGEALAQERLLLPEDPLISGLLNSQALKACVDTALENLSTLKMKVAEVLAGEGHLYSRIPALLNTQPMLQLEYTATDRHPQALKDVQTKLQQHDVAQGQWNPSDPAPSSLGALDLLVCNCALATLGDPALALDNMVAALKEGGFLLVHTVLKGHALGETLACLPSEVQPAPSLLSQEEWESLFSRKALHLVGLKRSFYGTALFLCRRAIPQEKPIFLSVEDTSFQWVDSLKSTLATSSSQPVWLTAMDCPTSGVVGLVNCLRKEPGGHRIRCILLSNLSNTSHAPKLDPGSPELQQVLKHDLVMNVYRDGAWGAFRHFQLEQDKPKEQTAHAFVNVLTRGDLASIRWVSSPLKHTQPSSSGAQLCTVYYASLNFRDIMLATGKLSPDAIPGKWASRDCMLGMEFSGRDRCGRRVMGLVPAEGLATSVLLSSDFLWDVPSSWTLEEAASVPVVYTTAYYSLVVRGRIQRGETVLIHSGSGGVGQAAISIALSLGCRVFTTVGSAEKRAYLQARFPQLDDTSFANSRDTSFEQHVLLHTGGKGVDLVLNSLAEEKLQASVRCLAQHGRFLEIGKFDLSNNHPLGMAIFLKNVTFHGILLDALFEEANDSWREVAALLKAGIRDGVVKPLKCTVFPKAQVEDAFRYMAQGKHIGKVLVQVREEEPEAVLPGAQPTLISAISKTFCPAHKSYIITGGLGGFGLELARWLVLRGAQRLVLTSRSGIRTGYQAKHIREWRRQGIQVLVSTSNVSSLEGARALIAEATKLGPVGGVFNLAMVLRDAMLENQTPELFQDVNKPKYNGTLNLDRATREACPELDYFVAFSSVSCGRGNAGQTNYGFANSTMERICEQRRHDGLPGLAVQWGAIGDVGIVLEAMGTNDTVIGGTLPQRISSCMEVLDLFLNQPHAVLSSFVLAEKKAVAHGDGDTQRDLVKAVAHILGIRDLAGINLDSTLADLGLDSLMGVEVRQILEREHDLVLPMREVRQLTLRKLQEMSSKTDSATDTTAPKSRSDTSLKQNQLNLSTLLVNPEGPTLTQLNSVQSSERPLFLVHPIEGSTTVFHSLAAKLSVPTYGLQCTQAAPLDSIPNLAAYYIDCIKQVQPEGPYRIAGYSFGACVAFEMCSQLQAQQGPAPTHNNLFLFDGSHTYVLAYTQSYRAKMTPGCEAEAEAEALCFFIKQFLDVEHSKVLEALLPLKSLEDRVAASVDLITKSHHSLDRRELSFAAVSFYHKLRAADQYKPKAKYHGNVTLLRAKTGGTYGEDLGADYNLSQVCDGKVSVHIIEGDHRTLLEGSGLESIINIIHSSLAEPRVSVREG
T1 sequence (P06733 whole entry): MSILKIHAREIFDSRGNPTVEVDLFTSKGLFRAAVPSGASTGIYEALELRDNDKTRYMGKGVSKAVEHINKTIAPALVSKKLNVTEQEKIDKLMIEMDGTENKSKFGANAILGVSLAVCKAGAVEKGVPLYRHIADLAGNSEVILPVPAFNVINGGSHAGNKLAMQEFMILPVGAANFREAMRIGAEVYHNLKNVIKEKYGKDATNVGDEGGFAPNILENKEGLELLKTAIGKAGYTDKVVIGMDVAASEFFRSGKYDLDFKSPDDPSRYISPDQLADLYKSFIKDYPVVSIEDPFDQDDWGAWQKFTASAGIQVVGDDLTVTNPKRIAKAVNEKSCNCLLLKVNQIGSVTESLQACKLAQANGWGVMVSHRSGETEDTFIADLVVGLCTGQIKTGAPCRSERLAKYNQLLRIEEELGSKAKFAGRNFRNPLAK

On to `C=C1C(=O)OC(CCCCCCCC)C1C(=O)O` (centres unmarked) [C75], for which, in test [1], the food intake entry is reported as “reducing food intake” and the weight loss result was “weight loss”.
For the molecule `C/C=C/C/C=C/CCC(=O)[C@H]1O[C@H]1C(N)=O` [Cerulenin], in test [1], the food intake result is on record as “reducing food intake” and the weight loss entry is recorded as “weight loss”.
For `CNC(=O)c1cc(Oc2ccc(NC(=O)Nc3ccc(Cl)c(C(F)(F)F)c3)cc2)ccn1` [Sorafenib], in test [2], the ENO1 activity entry was “significant decrease; also recorded: downregulating”. In addition, the LDHA activity result in test [3] is “significant decrease; also recorded: downregulating”. Moreover, in test [4], the PGK1 activity entry is “significant decrease; also recorded: downregulating”. Besides, the LDHA protein expression result in test [5] is on record as “upregulation”.

These data come from patent US12437835B2, “Interrogatory cell-based assays and uses thereof” (Berg LLC, priority 2012, dated 2025).
